Measured values: US20220356186A1, “PERK INHIBITING PYRROLOPYRIMIDINE COMPOUNDS” (HiberCell, Inc., priority 2019, published 2022)
Like-named read-outs stand apart in the source and are kept apart here.

Assays:
[1] = system: GFP-eIF2α in HEK293 cells; assay: PERK cellular assay, TR-FRET in HEK293-EGFP-eIF2a cells after tunicamycin-induced ER stress; format: cell-based; conditions: HEK293-EGFP-eIF2a cells, tunicamycin 2 hours, read-out: Cellular eIF2α IC50
Summary of the method: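 HEK293 cells stably expressing GFP-eIF2α, plated 5000 cells/well overnight, pretreated with inhibitors 30 min at 37 °C, then ER stress induced with tunicamycin […] for 2 h.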

[2] = molecular target: T1, EIF2AK3 (PERK) catalytic domain (amino acids 536-1116) (Homo sapiens, UniProt Q9NZJ5); assay: PERK in vitro activity assay (isolated), TR-FRET kinase assay; format: biochemical; conditions: isolated PERK enzyme, 1.5 μM ATP; read-out: Biochemical IC50
T1 construct: EIF2AK3 (PERK) catalytic domain (amino acids 536-1116)
T1 sequence (Q9NZJ5 536-1116): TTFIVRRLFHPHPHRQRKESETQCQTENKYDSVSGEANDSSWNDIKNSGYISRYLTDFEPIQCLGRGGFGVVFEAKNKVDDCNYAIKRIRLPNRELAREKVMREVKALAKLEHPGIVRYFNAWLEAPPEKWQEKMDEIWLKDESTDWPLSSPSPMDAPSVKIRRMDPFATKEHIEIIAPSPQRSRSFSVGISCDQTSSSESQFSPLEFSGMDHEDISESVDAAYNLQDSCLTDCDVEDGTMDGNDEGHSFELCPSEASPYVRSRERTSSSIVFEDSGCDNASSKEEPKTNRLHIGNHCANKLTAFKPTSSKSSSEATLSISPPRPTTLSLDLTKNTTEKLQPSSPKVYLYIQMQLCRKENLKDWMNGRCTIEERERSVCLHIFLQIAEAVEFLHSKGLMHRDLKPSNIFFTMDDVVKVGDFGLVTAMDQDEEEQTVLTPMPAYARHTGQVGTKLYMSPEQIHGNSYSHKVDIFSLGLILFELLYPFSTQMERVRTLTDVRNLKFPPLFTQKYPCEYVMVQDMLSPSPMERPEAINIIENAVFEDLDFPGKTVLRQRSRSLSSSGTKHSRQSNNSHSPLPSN
Summary of the method: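 Human PERK catalytic domain (aa 536-1116) phosphorylating 100-200 nM GFP-eIF2a in 50 mM HEPES pH 7.5, 10 mM MgCl2, 1 mM EGTA, 0.01% Brij-35; enzyme-started, 45 min at room temperature. Stopped with 10 mM EDTA, 2 nM Tb-anti-phospho-eIF2a added for 90 min; IC50 from TR-FRET ratios by 4-parameter logistic fit.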

| Compound | IC50 [1] | IC50 [2] | IC50 ([1]; Homo sapiens, HEK293, 2 h) |
| --- | --- | --- | --- |
| Cc1nc(N)c2c(-c3ccc(NC(=O)C(O)c4ccccc4C)cc3Cl)cn(C)c2n1 (centres unmarked) [Example 93, N-(4-(4-amino-2,7-dimethyl-7H-pyrrolo[2,3-d]pyrimidin-5-yl)-3-chlorophenyl)-2-hydroxy-2-(o-tolyl)acetamide] | 2 to 3 µM | 0.501 to 1 µM | – |
| Cc1cccc(C(O)C(=O)Nc2ccc(-c3cn(C)c4nc(C)nc(N)c34)c(C)c2)c1 (centres unmarked) [Example 42, N-(4-(4-amino-2,7-dimethyl-7H-pyrrolo[2,3-d]pyrimidin-5-yl)-3-methylphenyl)-2-hydroxy-2-(m-tolyl)acetamide] | – | 0.001 to 0.025 µM | 0.051 to 0.1 µM |
| Cc1nc(N)c2c(-c3ccc(NC(=O)C(O)c4cccc(C(F)(F)F)c4)c(F)c3F)cn(C)c2n1 (centres unmarked) [Example 108, N-(4-(4-amino-2,7-dimethyl-7H-pyrrolo[2,3-d]pyrimidin-5-yl)-2,3-difluorophenyl)-2-hydroxy-2-(3-(trifluoromethyl)phenyl)acetamide] | 0.101 to 0.25 µM | 0.101 to 0.25 µM | – |
| Cn1cc(-c2ccc(NC(=O)C(O)c3cccc(F)c3)cc2Cl)c2c(N)ncnc21 (centres unmarked) [Example 15, N-(4-(4-amino-7-methyl-7H-pyrrolo[2,3-d]pyrimidin-5-yl)-3-chlorophenyl)-2-(3-fluorophenyl)-2-hydroxyacetamide] | 0.051 to 0.1 µM | 0.026 to 0.05 µM | – |
| Cc1nc(N)c2c(-c3ccc(NC(=O)C(O)c4cc(F)cc(C(F)(F)F)c4)c(F)c3F)cn(C)c2n1 (single isomer, unassigned) [Example 116, N-(4-(4-amino-2,7-dimethyl-7H-pyrrolo[2,3-d]pyrimidin-5-yl)-2,3-difluorophenyl)-2-(3-fluoro-5-(trifluoromethyl)phenyl)-2-hydroxyacetamide] | 0.251 to 0.5 µM | 0.251 to 0.5 µM | – |
| Cc1nc(N)c2c(-c3ccc(NC(=O)C(O)c4cccc(C(F)(F)F)n4)cc3C)cn(C)c2n1 (centres unmarked) [Example 61, N-(4-(4-amino-2,7-dimethyl-7H-pyrrolo[2,3-d]pyrimidin-5-yl)-3-methylphenyl)-2-hydroxy-2-(6-(trifluoromethyl)pyridin-2-yl)acetamide] | 0.501 to 1 µM | 0.101 to 0.25 µM | – |
| Cc1cc(NC(=O)C(O)c2ccccc2F)ccc1-c1cn(C)c2ncnc(N)c12 (centres unmarked) [Example 31, N-(4-(4-amino-7-methyl-7H-pyrrolo[2,3-d]pyrimidin-5-yl)-3-methylphenyl)-2-(2-fluorophenyl)-2-hydroxyacetamide] | – | 0.001 to 0.025 µM | 0.026 to 0.05 µM |
| Cc1cc(NC(=O)C(O)c2cccc(F)c2)c(F)cc1-c1cn(C)c2ncnc(N)c12 (centres unmarked) [Example 120, N-(4-(4-amino-7-methyl-7H-pyrrolo[2,3-d]pyrimidin-5-yl)-2-fluoro-5-methylphenyl)-2-(3-fluorophenyl)-2-hydroxyacetamide] | 0.251 to 0.5 µM | 0.051 to 0.1 µM | – |
| Cn1cc(-c2ccc(NC(=O)C(O)c3cccc(F)c3)cc2C(F)(F)F)c2c(N)ncnc21 (centres unmarked) [Example 16, N-(4-(4-amino-7-methyl-7H-pyrrolo[2,3-d]pyrimidin-5-yl)-3-(trifluoromethyl)phenyl)-2-(3-fluorophenyl)-2-hydroxyacetamide] | – | 0.001 to 0.025 µM | 0.101 to 0.25 µM |
| Cc1nc(N)c2c(-c3ccc(NC(=O)C(O)c4cccc(Cl)c4)cc3Cl)cn(C)c2n1 (centres unmarked) [Example 100, N-(4-(4-amino-2,7-dimethyl-7H-pyrrolo[2,3-d]pyrimidin-5-yl)-3-chlorophenyl)-2-(3-chlorophenyl)-2-hydroxyacetamide] | 0.101 to 0.25 µM | 0.026 to 0.05 µM | – |
| Cc1cc(NC(=O)Cc2ccc(F)cc2)ccc1-c1cn(C)c2ncnc(N)c12 [Example 140, N-(4-(4-amino-7-methyl-7H-pyrrolo[2,3-d]pyrimidin-5-yl)-3-methylphenyl)-2-(4-fluorophenyl)acetamide] | – | 0.001 to 0.025 µM | 0.026 to 0.05 µM |
| Cc1cc(NC(=O)CC2CCC2)ccc1-c1cn(C)c2ncnc(N)c12 [Example 164, N-(4-(4-amino-7-methyl-7H-pyrrolo[2,3-d]pyrimidin-5-yl)-3-methylphenyl)-2-cyclobutyl-acetamide] | – | 0.051 to 0.1 µM | 2 to 3 µM |
| Cc1nc(N)c2c(-c3cc(F)c(NC(=O)C(O)c4cccc(F)c4)cc3F)cn(C)c2n1 (centres unmarked) [Example 123, N-(4-(4-amino-2,7-dimethyl-7H-pyrrolo[2,3-d]pyrimidin-5-yl)-2,5-difluorophenyl)-2-(3-fluorophenyl)-2-hydroxyacetamide] | – | 0.001 to 0.025 µM | 0.026 to 0.05 µM |
| Cc1nc(N)c2c(-c3ccc(NC(=O)C(O)c4cccc(F)c4)cc3OC(F)(F)F)cn(C)c2n1 (single isomer, unassigned) [Example 22, N-(4-(4-amino-2,7-dimethyl-7H-pyrrolo[2,3-d]pyrimidin-5-yl)-3-(trifluoromethoxy)phenyl)-2-(3-fluorophenyl)-2-hydroxyacetamide] | > 5 µM | 0.101 to 0.25 µM | – |
| Cc1cccc(C(O)C(=O)Nc2ccc(-c3cn(C)c4nc(C)nc(N)c34)c(F)c2)c1 (centres unmarked) [Example 74, N-(4-(4-amino-2,7-dimethyl-7H-pyrrolo[2,3-d]pyrimidin-5-yl)-3-fluorophenyl)-2-hydroxy-2-(m-tolyl)acetamide] | 0.001 to 0.025 µM | 0.001 to 0.025 µM | – |
| Cc1cc(NC(=O)N(C)c2ccccc2)ccc1-c1cn(C)c2ncnc(N)c12 [Example 171, 3-(4-(4-amino-7-methyl-7H-pyrrolo[2,3-d]pyrimidin-5-yl)-3-methylphenyl)-1-methyl-1-phenylurea] | – | 0.101 to 0.25 µM | 1 to 2 µM |
| Cc1cc(NC(=O)Cc2cccc(C)c2C)ccc1-c1cn(C)c2ncnc(N)c12 [Example 162, N-(4-(4-amino-7-methyl-7H-pyrrolo[2,3-d]pyrimidin-5-yl)-3-methylphenyl)-2-(2,3-dimethylphenyl)acetamide] | – | 0.001 to 0.025 µM | 0.051 to 0.1 µM |
| CCc1cccc(C(O)C(=O)Nc2ccc(-c3cn(C)c4nc(C)nc(N)c34)c(F)c2)c1 (centres unmarked) [Example 75, N-(4-(4-amino-2,7-dimethyl-7H-pyrrolo[2,3-d]pyrimidin-5-yl)-3-fluorophenyl)-2-(3-ethylphenyl)-2-hydroxyacetamide] | 1 to 2 µM | 0.051 to 0.1 µM | – |
| Cc1nc(N)c2c(-c3ccc(NC(=O)C(O)c4ccccc4F)cc3C)cn(C)c2n1 (centres unmarked) [Example 32, N-(4-(4-amino-2,7-dimethyl-7H-pyrrolo[2,3-d]pyrimidin-5-yl)-3-methylphenyl)-2-(2-fluorophenyl)-2-hydroxyacetamide] | – | 0.101 to 0.25 µM | 0.251 to 0.5 µM |
| COc1cc(NC(=O)C(O)c2cccc(F)c2)ccc1-c1cn(C)c2ncnc(N)c12 (centres unmarked) [Example 103, N-(4-(4-amino-7-methyl-7H-pyrrolo[2,3-d]pyrimidin-5-yl)-3-methoxyphenyl)-2-(3-fluorophenyl)-2-hydroxyacetamide] | 2 to 3 µM | 0.101 to 0.25 µM | – |
| CCc1cc(F)cc(C(O)C(=O)Nc2ccc(-c3cn(C)c4nc(C)nc(N)c34)c(C)c2)c1 (centres unmarked) [Example 59, N-(4-(4-amino-2,7-dimethyl-7H-pyrrolo[2,3-d]pyrimidin-5-yl)-3-methylphenyl)-2-(3-ethyl-5-fluorophenyl)-2-hydroxyacetamide] | 0.251 to 0.5 µM | 0.051 to 0.1 µM | – |
| Cc1nc(N)c2c(-c3ccc(NC(=O)C(O)c4cc(F)cc(C(F)(F)F)c4)cc3F)cn(C)c2n1 (centres unmarked) [Example 87, N-(4-(4-amino-2,7-dimethyl-7H-pyrrolo[2,3-d]pyrimidin-5-yl)-3-fluorophenyl)-2-(3-fluoro-5-(trifluoromethyl)phenyl)-2-hydroxyacetamide] | 0.051 to 0.1 µM | 0.001 to 0.025 µM | – |
